Measured values: ChEMBL document CHEMBL3046948, “Synthesis and SAR investigation of natural phenylpropene-derived methoxylated cinnamaldehydes and their novel Schiff bases as potent antimicrobial and antioxidant agents” (2013)
In brackets after ≈: the same amount, converted by molar mass. Activity calls are given as the source filed them. The calls are words filed in the database; no cut-off is given here.

Assays:
Type in all cases: functional
Escherichia coli = test: Antimicrobial activity against Escherichia coli MTCC 43 assessed as growth inhibition after 24 hr by broth microdilution method
Aspergillus sydowii = test: Antimicrobial activity against Aspergillus sydowii MTCC 4335 assessed as growth inhibition after 5 days by broth microdilution method
Trichophyton rubrum = test: Antimicrobial activity against Trichophyton rubrum MTCC 296 assessed as growth inhibition after 5 days by broth microdilution method
Pichia kudriavzevii = test: Antimicrobial activity against Pichia kudriavzevii MTCC 231 assessed as growth inhibition after 24 hr by broth microdilution method
Micrococcus luteus = test: Antimicrobial activity against Micrococcus luteus MTCC 2470 assessed as growth inhibition after 24 hr by broth microdilution method
Bacillus subtilis = test: Antimicrobial activity against Bacillus subtilis MTCC 121 assessed as growth inhibition after 24 hr by broth microdilution method
Candida albicans = test: Antimicrobial activity against Candida albicans MTCC 3017 assessed as growth inhibition after 24 hr by broth microdilution method
Staphylococcus aureus = test: Antimicrobial activity against Staphylococcus aureus MTCC 3160 assessed as growth inhibition after 24 hr by broth microdilution method
Enterobacter cloacae = test: Antimicrobial activity against Enterobacter cloacae MTCC 509 assessed as growth inhibition after 24 hr by broth microdilution method
[1] = system: Radical scavenging activity; test: Antioxidant activity assessed as inhibition of DPPH radical formation at 2 mg/ml after 30 min by spectrophotometric analysis
Aspergillus parasiticus = test: Antimicrobial activity against Aspergillus parasiticus MTCC 2797 assessed as growth inhibition after 5 days by broth microdilution method
Pseudomonas aeruginosa = test: Antimicrobial activity against Pseudomonas aeruginosa MTCC 424 assessed as growth inhibition after 24 hr by broth microdilution method
Burkholderia cepacia = test: Antimicrobial activity against Burkholderia cepacia MTCC 438 assessed as growth inhibition after 24 hr by broth microdilution method
Aspergillus niger = test: Antimicrobial activity against Aspergillus niger MTCC 404 assessed as growth inhibition after 5 days by broth microdilution method
Klebsiella pneumoniae = test: Antimicrobial activity against Klebsiella pneumoniae MTCC 109 assessed as growth inhibition after 24 hr by broth microdilution method

SMILES	MIC (Escherichia coli)	MIC (Aspergillus sydowii; MTCC 4335, 120 h) [µM]	MIC (Trichophyton rubrum; MTCC 296, 120 h) [µM]	MIC (Pichia kudriavzevii; MTCC 231, 24 h) [µM]	MIC (Micrococcus luteus; MTCC 2470, 24 h) [µM]	MIC (Bacillus subtilis; MTCC 121, 24 h) [µM]	MIC (Candida albicans; MTCC 3017, 24 h) [µM]	MIC (Staphylococcus aureus; MTCC 3160, 24 h) [µM]	MIC (Enterobacter cloacae)	inhibition [1] [%]	MIC (Aspergillus parasiticus; MTCC 2797, 120 h) [µM]	MIC (Pseudomonas aeruginosa)	MIC (Burkholderia cepacia; MTCC 438, 24 h) [µM]	MIC (Klebsiella pneumoniae)	MIC (Enterobacter cloacae; MTCC 509, 24 h) [µM]	MIC (Klebsiella pneumoniae; MTCC 109, 24 h) [µM]	MIC (Aspergillus sydowii)	MIC (Bacillus subtilis)	MIC (Aspergillus parasiticus)	MIC (Aspergillus niger)	other results
CC(=O)c1ccc(/N=C/C=C/c2ccc3c(c2)OCO3)cc1	inactive	850 (≈ 249 µg/mL)	1700 (≈ 499 µg/mL)	1700 (≈ 499 µg/mL)	850 (≈ 249 µg/mL)	850 (≈ 249 µg/mL)	1700 (≈ 499 µg/mL)	850 (≈ 249 µg/mL)	inactive	4.49	1700 (≈ 499 µg/mL)	inactive	1700 (≈ 499 µg/mL)	inactive							MIC (Aspergillus niger; MTCC 404, 120 h): 1700 µM (≈ 499 µg/mL)
C(=C\c1ccc2c(c1)OCO2)/C=N/c1nccs1		1930 (≈ 499 µg/mL)	970 (≈ 251 µg/mL)	970 (≈ 251 µg/mL)	970 (≈ 251 µg/mL)	120 (≈ 31 µg/mL)	970 (≈ 251 µg/mL)	480 (≈ 124 µg/mL)		3.91	3870 (≈ 1000 µg/mL)	inactive	1930 (≈ 499 µg/mL)		480 (≈ 124 µg/mL)	970 (≈ 251 µg/mL)					MIC (Escherichia coli; MTCC 43, 24 h): 970 µM (≈ 251 µg/mL); MIC (Aspergillus niger; MTCC 404, 120 h): 3870 µM (≈ 1000 µg/mL)
C(=C\c1ccc2c(c1)OCO2)/C=N/c1ccccc1		1990 (≈ 500 µg/mL)	990 (≈ 249 µg/mL)	490 (≈ 123 µg/mL)	990 (≈ 249 µg/mL)	1990 (≈ 500 µg/mL)	990 (≈ 249 µg/mL)	1990 (≈ 500 µg/mL)		25.8	1990 (≈ 500 µg/mL)		490 (≈ 123 µg/mL)		990 (≈ 249 µg/mL)	990 (≈ 249 µg/mL)					MIC (Escherichia coli; MTCC 43, 24 h): 1990 µM (≈ 500 µg/mL); MIC (Pseudomonas aeruginosa; MTCC 424, 24 h): 250 µM (≈ 62.8 µg/mL); MIC (Aspergillus niger; MTCC 404, 120 h): 990 µM (≈ 249 µg/mL)
Cc1cc(C(C)(C)C)c(O)c(C(C)(C)C)c1										91.6											
NC(=O)N/N=C/C=C/c1ccc2c(c1)OCO2	inactive		8570 (≈ 2000 µg/mL)	8570 (≈ 2000 µg/mL)			8570 (≈ 2000 µg/mL)		inactive	2.37		inactive		inactive			inactive	inactive	inactive	inactive	MIC (Micrococcus luteus): inactive; MIC (Staphylococcus aureus): inactive; MIC (Burkholderia cepacia): inactive
COc1ccc(/N=C/C=C/c2ccc3c(c2)OCO3)cc1OC	inactive	3210 (≈ 999 µg/mL)							inactive	15.4	1600 (≈ 498 µg/mL)	inactive		inactive				inactive		inactive	MIC (Trichophyton rubrum): inactive; MIC (Pichia kudriavzevii): inactive; MIC (Micrococcus luteus): inactive; MIC (Candida albicans): inactive; MIC (Staphylococcus aureus): inactive; MIC (Burkholderia cepacia): inactive
C(=C\c1ccc2c(c1)OCO2)/C=N/c1nc2ccccc2s1			810 (≈ 250 µg/mL)	1620 (≈ 500 µg/mL)	200 (≈ 61.7 µg/mL)	400 (≈ 123 µg/mL)	810 (≈ 250 µg/mL)	200 (≈ 61.7 µg/mL)		3.55			810 (≈ 250 µg/mL)		810 (≈ 250 µg/mL)	810 (≈ 250 µg/mL)	inactive		inactive	inactive	MIC (Escherichia coli; MTCC 43, 24 h): 810 µM (≈ 250 µg/mL); MIC (Pseudomonas aeruginosa; MTCC 424, 24 h): 810 µM (≈ 250 µg/mL)
CCOc1ccc2nc(/N=C/C=C/c3ccc4c(c3)OCO4)sc2c1	inactive	710 (≈ 250 µg/mL)	1420 (≈ 500 µg/mL)	1420 (≈ 500 µg/mL)	710 (≈ 250 µg/mL)	1420 (≈ 500 µg/mL)	1420 (≈ 500 µg/mL)	710 (≈ 250 µg/mL)	inactive	0.24	710 (≈ 250 µg/mL)	inactive	1420 (≈ 500 µg/mL)	inactive						inactive	
C(=C\c1nc2ccccc2[nH]1)/c1ccc2c(c1)OCO2		1900 (≈ 502 µg/mL)	470 (≈ 124 µg/mL)	470 (≈ 124 µg/mL)	1900 (≈ 502 µg/mL)	3780 (≈ 999 µg/mL)	470 (≈ 124 µg/mL)	1900 (≈ 502 µg/mL)		32.6	1900 (≈ 502 µg/mL)		470 (≈ 124 µg/mL)		950 (≈ 251 µg/mL)	1900 (≈ 502 µg/mL)					MIC (Escherichia coli; MTCC 43, 24 h): 1900 µM (≈ 502 µg/mL); MIC (Pseudomonas aeruginosa; MTCC 424, 24 h): 10 µM (≈ 2.64 µg/mL); MIC (Aspergillus niger; MTCC 404, 120 h): 950 µM (≈ 251 µg/mL)
Clc1ccc2nc(/N=C/C=C/c3ccc4c(c3)OCO4)sc2c1	inactive		730 (≈ 250 µg/mL)	730 (≈ 250 µg/mL)	730 (≈ 250 µg/mL)	730 (≈ 250 µg/mL)	730 (≈ 250 µg/mL)	730 (≈ 250 µg/mL)	inactive	80.7		inactive	730 (≈ 250 µg/mL)	inactive			inactive		inactive	inactive	
Cc1ccc2nc(/N=C/C=C/c3ccc4c(c3)OCO4)sc2c1	inactive		770 (≈ 248 µg/mL)	770 (≈ 248 µg/mL)	770 (≈ 248 µg/mL)	770 (≈ 248 µg/mL)	770 (≈ 248 µg/mL)	380 (≈ 123 µg/mL)		3.19		inactive	770 (≈ 248 µg/mL)	inactive	770 (≈ 248 µg/mL)		inactive		inactive	inactive	
COc1cc(OC)c(OC)cc1/C=C/C=O	inactive	4500 (≈ 1000 µg/mL)	8990 (≈ 2000 µg/mL)	8990 (≈ 2000 µg/mL)	2250 (≈ 500 µg/mL)		8990 (≈ 2000 µg/mL)		inactive			inactive		inactive				inactive	inactive	inactive	MIC (Staphylococcus aureus): inactive; MIC (Burkholderia cepacia): inactive
C=CCc1ccc2c(c1)OCO2 [SAFROLE]	inactive		6160 (≈ 999 µg/mL)	6160 (≈ 999 µg/mL)			6160 (≈ 999 µg/mL)		inactive			inactive		inactive			inactive	inactive	inactive	inactive	MIC (Micrococcus luteus): inactive; MIC (Staphylococcus aureus): inactive; MIC (Burkholderia cepacia): inactive
CCCCCCCCCCCCOC(=O)/C=C/c1ccccc1	inactive		790 (≈ 250 µg/mL)	390 (≈ 123 µg/mL)			790 (≈ 250 µg/mL)		inactive			inactive				3160 (≈ 1000 µg/mL)	inactive	inactive	inactive	inactive	MIC (Micrococcus luteus): inactive; MIC (Staphylococcus aureus): inactive; MIC (Burkholderia cepacia): inactive
